Patent US20250161286A1 (AEVIS BIO, INC., priority 2022, published 2025)

Tested on: tyrosine hydroxylase (TH)
Assay: Immunohistochemical test of tyrosine hydroxylase in brain of MPTP mice
Type: in vivo, mouse
Conditions: oral, versus MPTP group
Method: To cause the disease, mice in the G2, G3, G4, and G5 groups were administered MPTP dissolved in saline via an intraperitoneal route at 2-hour intervals four times a day (20 mg/kg/time), while the G1 group received the same amount of saline.
After the end of the test on day 7, the brain tissue of the sacrificed mice was collected, sectioned, and analyzed.
Six mice per group were fixed by perfusion with saline followed by perfusion with 4% paraformaldehyde (Biosesang, cat #PC2031-000-00). Each brain tissue was rapidly frozen after isolation and stored at −80° C. until tissue sectioning. Sections for immunohistochemical testing were embedded in an OCT compound (SAKURA, cat #4583), samples were sectioned into 20 μm-thick sections using a cryomicrotome, Leica CM1950 (Leica Microsystems, Germany), and each section was stored at 4° C. until an antibody reaction. […] Images stained with the tyrosine hydroxylase antibody were observed under a microscope (Olympus, SZ61, BX51), and the OD values, which are immunostaining-positive, observed in the striatum and substantia nigra tissue were measured and analyzed by the Image J program.

Nc1cccc2c1C(=S)N(C1CCC(=O)NC1=O)C2=O (centres unmarked) [3-MP, 3-thiopomalidomide]
expression of tyrosine hydroxylase in the substantia nigra (30 and 90 mg/kg): increased in a statistically significant manner
expression of tyrosine hydroxylase (TH) in the striatum (all doses, particularly 30 mg/kg): significantly increased
